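Each compound was tested at five concentrations against cells in 96-well plates for 48 hours. GI50: concentration for 50% inhibition of growth. At the TGI there is no net growth.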

Test systems include UACC-257 melanoma; UACC-62 melanoma; CCRF-CEM leukemia; MOLT-4 leukemia; ACHN renal; K-562 leukemia; HS 578T breast; MCF7 breast; DU-145 prostate; T-47D breast.
Holding throughout (test): NCI anticancer screen, dose series, 48 h

Regarding `CCCN(CCC)c1c([N+](=O)[O-])cc(C(=O)N(CC)CC)cc1[N+](=O)[O-]`, the TGI was 43.3 µM in the test on UACC-257 melanoma; 69.1 µM in the test with UACC-62 melanoma; 60.9 µM with CCRF-CEM leukemia; 50 µM in the test on MOLT-4 leukemia; above 100 µM in the test with ACHN renal; above 100 µM with K-562 leukemia.

Take `Cc1cc(C(=O)CSC(=S)SC(C)(C)C)ccc1Cl`: the TGI in the test with UACC-257 melanoma is 34.4 µM; in the test on HS 578T breast, 82.3 µM; in the test with UACC-62 melanoma it was 30.1 µM; in the test with MOLT-4 leukemia, 62.9 µM; with ACHN renal, 62.9 µM; in the test on MCF7 breast it was above 100 µM. The TGI in the test with DU-145 prostate and in the test on K-562 leukemia was above 100 µM in each case.

With `O=C(c1ccc([N+](=O)[O-])cc1[N+](=O)[O-])N(/N=C/C=C/c1ccccc1)c1nnc(-c2ccccc2)c(-c2ccccc2)n1`, the TGI is above 100 µM in the test on UACC-257 melanoma; 70.4 µM with UACC-62 melanoma; 84.2 µM in the test on CCRF-CEM leukemia; above 100 µM in the test on MOLT-4 leukemia; 78.1 µM with ACHN renal; 57.3 µM in the test on K-562 leukemia.

`CCOc1ccc(OCC(=O)O)c2c1CCCC2=O`: the TGI in the test with UACC-257 melanoma, with UACC-62 melanoma, in the test with MOLT-4 leukemia and with ACHN renal was above 100 µM throughout.

Turning to `COc1cc(OC)c(OC)cc1/C=N/NC(=O)N/N=C/c1cc(OC)c(OC)cc1OC`, the TGI with UACC-257 melanoma, with UACC-62 melanoma, in the test on CCRF-CEM leukemia, with MOLT-4 leukemia, with ACHN renal and in the test on K-562 leukemia was above 100 µM in each case.

As for `COc1ccc(NC(=O)CSc2nnc(-c3ccc(NC(C)=O)cc3)o2)cc1`, the TGI was 41.7 µM in the test with UACC-257 melanoma; 35.2 µM with UACC-62 melanoma; above 100 µM in the test with CCRF-CEM leukemia; 40.9 µM in the test with MOLT-4 leukemia; 31.1 µM in the test with ACHN renal; above 100 µM in the test with K-562 leukemia.

In the case of `COC(=N)c1csc(C2OC(CO)C(O)C2O)n1` (stereo not drawn), the TGI in the test on UACC-257 melanoma, in the test with UACC-62 melanoma, with CCRF-CEM leukemia, in the test with MOLT-4 leukemia, with ACHN renal and in the test on K-562 leukemia was above 100 µM throughout.

Consider `C[N+](C)(C)CC(=O)N/N=C(/Cc1cc(=O)oc2cc(O)ccc12)C(=O)Nc1ccc(Cl)cc1`, for which the TGI with UACC-257 melanoma, in the test with UACC-62 melanoma, in the test with CCRF-CEM leukemia, with MOLT-4 leukemia, with ACHN renal and in the test on K-562 leukemia was above 100 µM each time.

Consider `NC(N)=Nc1nc2ccccc2o1`, for which the GI50 was 21.2 µM in the test on UACC-257 melanoma; above 100 µM with UACC-62 melanoma; above 100 µM with CCRF-CEM leukemia; above 100 µM in the test on MOLT-4 leukemia; above 100 µM in the test with ACHN renal; above 100 µM in the test on MCF7 breast. Besides, the GI50 in the test on DU-145 prostate, in the test on T-47D breast and with K-562 leukemia was above 100 µM throughout. Besides, the TGI in the test with UACC-257 melanoma, in the test on UACC-62 melanoma, in the test with CCRF-CEM leukemia, with MOLT-4 leukemia, in the test on ACHN renal and in the test with MCF7 breast was above 100 µM throughout. Also, the TGI with DU-145 prostate, in the test on T-47D breast and in the test with K-562 leukemia was above 100 µM throughout.

`O=S(=O)(OI(OI(OS(=O)(=O)C(F)(F)F)c1ccccc1)c1ccccc1)C(F)(F)F`: the TGI was above 100 µM in the test with UACC-62 melanoma; 91.1 µM in the test with CCRF-CEM leukemia; above 100 µM with MOLT-4 leukemia; above 100 µM in the test on ACHN renal; above 100 µM in the test with K-562 leukemia.

In the case of `Cc1nc2c(N)ncnc2o1`, the TGI with UACC-257 melanoma, with UACC-62 melanoma, in the test with CCRF-CEM leukemia, in the test with MOLT-4 leukemia, in the test with ACHN renal and in the test on K-562 leukemia was above 100 µM each time.

As for `O=Cc1cc2c(cc1-c1cc3c(cc1C=O)OCO3)OCO2`, the TGI in the test with UACC-257 melanoma is above 100 µM; in the test on UACC-62 melanoma it was above 100 µM; with CCRF-CEM leukemia, 82.7 µM; in the test with MOLT-4 leukemia, above 100 µM; in the test on ACHN renal it was above 100 µM; in the test with K-562 leukemia it was above 100 µM.

`CCCCCCCCc1cc2c(O)c(c1)Cc1cc(CCCCCCCC)cc(c1O)Cc1cc(CCCCCCCC)cc(c1O)Cc1cc(CCCCCCCC)cc(c1O)Cc1cc(CCCCCCCC)cc(c1O)Cc1cc(CCCCCCCC)cc(c1O)C2`: the TGI in the test on UACC-257 melanoma, in the test with UACC-62 melanoma, in the test on CCRF-CEM leukemia, in the test on MOLT-4 leukemia, with ACHN renal and in the test on K-562 leukemia was above 100 µM in each case.

Take `O=C1C=C(c2c(O)ccc3ccccc23)c2cc(O)ccc2C1=O`: the TGI in the test on UACC-257 melanoma is 33.1 µM; with UACC-62 melanoma, 14.2 µM; in the test on MOLT-4 leukemia it was 8.67 µM; in the test with ACHN renal, 31.5 µM; in the test with K-562 leukemia it was above 100 µM.

On to `CCOc1ccc(NC(=O)CC2SC(=Nc3ccc(C)cc3C)NC2=O)cc1` (stereo not drawn), for which the TGI in the test on UACC-257 melanoma is above 100 µM; in the test with UACC-62 melanoma, above 100 µM; with CCRF-CEM leukemia, above 100 µM; in the test on MOLT-4 leukemia, 65 µM; in the test with ACHN renal, above 100 µM; in the test with K-562 leukemia it was above 100 µM.

Regarding `CCC(C)(C)n1c(C)nc2c1C(=O)c1ccccc1C2=O`, the TGI in the test on UACC-257 melanoma is 84.4 µM; in the test on UACC-62 melanoma, 36.1 µM; with CCRF-CEM leukemia, above 100 µM; with MOLT-4 leukemia, above 100 µM; in the test on ACHN renal it was above 100 µM; in the test on K-562 leukemia, above 100 µM.

As to `c1ccc2c(c1)CCc1c(-c3ccncc3)n[nH]c1-2`, the TGI in the test on UACC-257 melanoma is 57.7 µM; in the test on UACC-62 melanoma, 34.7 µM; in the test on CCRF-CEM leukemia, 61.7 µM; with MOLT-4 leukemia, 85.4 µM; in the test with ACHN renal it was above 100 µM; with K-562 leukemia, above 100 µM.

On to `CC[C@@H]1NC(C(=O)OC)Cc2c1[nH]c1ccccc21` (stereo partly drawn), for which the TGI in the test on UACC-257 melanoma, in the test on UACC-62 melanoma, in the test on CCRF-CEM leukemia, in the test with MOLT-4 leukemia, in the test on ACHN renal and in the test on K-562 leukemia was above 100 µM throughout.

As to `COc1cc(C[P+](c2ccccc2)(c2ccccc2)c2ccccc2)cc(OC)c1OC`, the TGI in the test with UACC-257 melanoma, in the test with UACC-62 melanoma, with CCRF-CEM leukemia, in the test with ACHN renal and in the test on K-562 leukemia was above 100 µM in each case.

(Values after PubChem BioAssay (NCI).)
